# Reference: patent US20240034717A1, “NOVEL POTASSIUM CHANNEL INHIBITORS” (Saniona A/S, priority 2020, published 2024)
# Target: erythrocyte KCa3.1 channels (Homo sapiens (Human), UniProt O15554)
# Assay: Erythrocyte KCa3.1 assay
# Format: cell-based
# Details: human erythrocytes, A23187-activated KCa3.1; read-out: RBC K (in vitro) Human IC50 (μM) Potency category
# Procedure: Human blood was drawn from healthy human volunteers in a standard heparinized blood sampling vial (Vacutainer, Li/heparin, ED Bioscience, Plymouth, UK). The erythrocytes were packed by centrifugation, and the plasma and buffy coat were removed by aspiration. Erythrocytes were washed three times in the experimental salt solution and then stored at 0° C. until use. Blood samples from NMRI mice or from Wistar rats were treated similarly. The methodological principle is outlined in Macey et al. (1978) and further described in Strøbaek et al. (2013). Activation of the erythrocyte KCa3.1 channels were obtained by addition of the Ca^2+ ionophore A23187, which causes synchronized hyperpolarization, which is reported as a CCCP-mediated shift in the unbuffered extracellular pH of the erythrocyte suspension. Standard procedure: 3 mL unbuffered experimental salt solution (in mM: 2 KCl, 154 NaCl, 0.05 CaCl2) was heated to 37° C. with stirring. Packed erythrocytes were added (50 μL, final cytocrit 1.5%), and the extracellular pH (pHo) followed with a glass/calomel (pHG200-8/REF200, Radiometer, Denmark) electrode pair. CCCP (3 μL, final concentration 20 μM) was added followed by varying concentrations of test compounds (DMSO concentration constant). After pH stabilization at ˜7.2, A23187 (3 μL, final concentration 0.33 μM) was added to initiate the experiment. After the peak hyperpolarization was attained, the intracellular pH (pHi constant during the experiment) was found by haemolysing the erythrocytes via addition of 100 μL of Triton-X100.
# The erythrocyte membrane potential, Vm, was calculated according to: […]
# and the fractional remaining Ca^2+-activated K^+-conductance at the concentration C of blocker, fGK(C), was calculated from
# where the K^+ equilibrium potential EK=−107 mV, the Cl^− equilibrium potential ECl=−12 mV and the Vm(0) and Vm(C) are the peak hyperpolarizations in the control and in the presence of a concentration of C of blocker respectively.
# IC50 values for compounds were calculated from a plot of fGK(C) versus C by a fit to the Hill equation, using a custom program written in the IGOR-Pro software (WaveMetrics, Lake Oswego, OR, USA). All IC50-values are reported in μM.
row,IC50 [µM],SMILES
1,< 0.3,"CC(C)(N)CNC1(c2cccc(Cl)c2)CCC1 [N1-[1-(3-chlorophenyl)cyclobutyl]-2-methylpropane-1,2-diamine]"
2,< 0.3,COC(=O)N(C[C@H]1CCCN1)C1(c2cccc(C(F)(F)F)c2)CCC1 [methyl N-{[(2R)-pyrrolidin-2-yl]methyl}-N-{1-[3-(trifluoromethyl)phenyl]cyclobutyl}carbamate]
3,< 0.3,COC(=O)N(C[C@@H]1CCCN1)C1(c2cc(F)cc(C(F)(F)F)c2)CCC1 [Methyl N-{1-[3-fluoro-5-(trifluoromethyl)phenyl]cyclobutyl}-N-{[(2S)-pyrrolidin-2-yl]methyl}carbamate]
4,< 0.3,COC(=O)N(C[C@@H]1CCCN1)C1(c2ccc(F)c(C(F)(F)F)c2)CCC1 [methyl N-{1-[4-fluoro-3-(trifluoromethyl)phenyl]cyclobutyl}-N-{[(2S)-pyrrolidin-2-yl]methyl}carbamate]
5,< 0.3,COC(=O)N(C[C@H]1CCCN1)C1(c2cc(F)cc(C(F)(F)F)c2)CCC1 [Methyl N-{1-[3-fluoro-5-(trifluoromethyl)phenyl]cyclobutyl}-N-{[(2R)-pyrrolidin-2-yl]methyl}carbamate]
6,< 1,Fc1cc(C(F)(F)F)cc(C2(NC[C@H]3CCCN3)CCC2)c1 [1-[3-fluoro-5-(trifluoromethyl)phenyl]-N-{[(2R)-pyrrolidin-2-yl]methyl}cyclobutan-1-amine]
7,< 0.3,COC(=O)N(C[C@@H]1CCCN1)C1(c2cccc(Cl)c2)CCC1 [Methyl N-[1-(3-chlorophenyl)cyclobutyl]-N-{[(2S)-pyrrolidin-2-yl]methyl}carbamate]
8,< 1,COC(=O)N(CC(C)(C)N)C1(c2cc(Cl)ccc2F)CCC1 [Methyl N-(2-amino-2-methylpropyl)-N-[1-(5-chloro-2-fluorophenyl)cyclobutyl]carbamate]
9,< 1,FC(F)(F)c1cccc(C2(NC[C@@H]3CCCN3)CCC2)c1 [N-{[(2S)-pyrrolidin-2-yl]methyl}-1-[3-(trifluoromethyl)phenyl]cyclobutan-1-amine]
10,< 1,Fc1ccc(C2(NC[C@@H]3CCCN3)CCC2)cc1C1CC1 [1-(3-cyclopropyl-4-fluorophenyl)-N-{[(2S)-pyrrolidin-2-yl]methyl}cyclobutan-1-amine]
11,< 0.3,COC(=O)N(CC(C)(C)N)C1(c2cccc(C(F)(F)F)c2)CCC1 [methyl N-(2-amino-2-methylpropyl)-N-{1-[3-(trifluoromethyl)phenyl]cyclobutyl}carbamate]
12,< 0.3,COC(=O)N(CC(C)(C)N)C1(c2cccc(OC(F)(F)F)c2)CCC1 [Methyl N-(2-amino-2-methylpropyl)-N-{1-[3-(trifluoromethoxy)phenyl]cyclobutyl}carbamate]
13,< 1,COC(=O)N(C1CNC1)C1(c2ccc(F)c(C(F)(F)F)c2)CC1 [Methyl azetidin-3-yl(1-(4-fluoro-3-(trifluoromethyl)phenyl)cyclopropyl)carbamate]
14,< 0.3,COC(=O)N(C[C@@H]1CCCN1)C1(c2cccc(C(F)(F)F)c2)CCC1 [methyl N-{[(2S)-pyrrolidin-2-yl]methyl}-N-{1-[3-(trifluoromethyl)phenyl]cyclobutyl}carbamate]
15,< 1,CS(=O)(=O)N(CC1(N)CC1)C1(c2ccc(F)c(C(F)(F)F)c2)CC1 [N-((1-aminocyclopropyl)methyl)-N-(1-(4-fluoro-3-(trifluoromethyl)-phenyl)cyclopropyl)methanesulfonamide]
16,< 0.3,"CC(C)(N)CN(C1CCC1)C1(c2cccc(C(F)(F)F)c2)CC1 [N1-cyclobutyl-2-methyl-N1-(1-(3-(trifluoromethyl)phenyl)cyclopropyl)propane-1,2-diamine]"
17,< 1,COC(=O)N(C[C@@H]1COCCN1)C1(c2ccc(F)c(C(F)(F)F)c2)CC1 [Methyl (R)-(1-(4-fluoro-3-(trifluoromethyl)phenyl)cyclopropyl)(morpholin-3-ylmethyl) carbamate]
18,< 1,FC(F)(F)c1cccc(C2(NC[C@H]3CCCN3)CCC2)c1 [N-{[(2R)-pyrrolidin-2-yl]methyl}-1-[3-(trifluoromethyl)phenyl]cyclobutan-1-amine]

row,IC50 [µM],SMILES
1,< 0.3,O=C(OCC1CC1)N(C[C@@H]1CCCN1)C1(c2ccc(F)c(C(F)(F)F)c2)CC1 [Cyclopropylmethyl (S)-(1-(4-fluoro-3-(trifluoromethyl)phenyl)cyclopropyl)(pyrrolidin-2-ylmethyl)carbamate]
2,< 1,FC(F)(F)Oc1cccc(C2(NC[C@@H]3CCCN3)CCC2)c1 [N-{[(2S)-pyrrolidin-2-yl]methyl}-1-[3-(trifluoromethoxy)phenyl]cyclobutan-1-amine]
3,< 0.3,COC(=O)N(CC(C)(C)N)C1(c2cc(F)cc(C(F)(F)F)c2)CCC1 [Methyl N-(2-amino-2-methylpropyl)-N-{1-[3-fluoro-5-(trifluoromethyl)phenyl]cyclobutyl}carbamate]
4,< 0.3,Fc1ccc(C2(NC[C@@H]3CCCN3)CCC2)cc1C(F)(F)F [1-[4-fluoro-3-(trifluoromethyl)phenyl]-N-{[(2S)-pyrrolidin-2-yl]methyl}cyclobutan-1-amine]
5,< 1,COC(=O)N(CCN)C1(c2ccc(F)c(C(F)(F)F)c2)CC1 [Methyl (2-aminoethyl)(1-(4-fluoro-3-(trifluoromethyl)phenyl)cyclopropyl)carbamate]
6,< 0.3,COC(=O)N(C[C@H]1CCCN1)C1(c2cccc(OC(F)(F)F)c2)CCC1 [Methyl N-{[(2R)-pyrrolidin-2-yl]methyl}-N-{1-[3-(trifluoromethoxy)phenyl]cyclobutyl}carbamate]
7,< 1,FC(F)(F)Oc1cccc(C2(NC[C@H]3CCCN3)CCC2)c1 [N-{[(2R)-pyrrolidin-2-yl]methyl}-1-[3-(trifluoromethoxy)phenyl]cyclobutan-1-amine]
8,< 0.3,COC(=O)N(CC(C)(C)N)C1(c2ccc(F)c(C(F)(F)F)c2)CCC1 [methyl N-(2-amino-2-methylpropyl)-N-{1-[4-fluoro-3-(trifluoromethyl)phenyl]cyclobutyl}carbamate]
9,< 1,Fc1ccc(C2(NC[C@H]3CCCN3)CCC2)cc1C1CC1 [1-(3-cyclopropyl-4-fluorophenyl)-N-{[(2R)-pyrrolidin-2-yl]methyl}cyclobutan-1-amine]
10,< 0.3,COC(=O)N(C[C@H]1CCCN1)C1(c2ccc(F)c(C(F)(F)F)c2)CCC1 [methyl N-{1-[4-fluoro-3-(trifluoromethyl)phenyl]cyclobutyl}-N-{[(2R)-pyrrolidin-2-yl]methyl}carbamate]
11,< 0.3,COC(=O)N(C[C@H]1CCCN1)C1(c2cccc(Cl)c2)CCC1 [Methyl N-[1-(3-chlorophenyl)cyclobutyl]-N-{[(2R)-pyrrolidin-2-yl]methyl}carbamate]
12,< 1,Fc1ccc(C2(NC[C@H]3CCCN3)CCC2)cc1C(F)(F)F [1-[4-fluoro-3-(trifluoromethyl)phenyl]-N-{[(2R)-pyrrolidin-2-yl]methyl}cyclobutan-1-amine]
13,< 1,COC(=O)N(C[C@@H]1CCCN1)C1(c2cc(C(F)(F)F)ccc2F)CCC1 [Methyl N-{1-[2-fluoro-5-(trifluoromethyl)phenyl]cyclobutyl}-N-{[(2S)-pyrrolidin-2-yl]methyl}carbamate]
14,< 0.3,COC(=O)N(C[C@@H]1CCCN1)C1(c2cccc(OC(F)(F)F)c2)CCC1 [Methyl N-{[(2S)-pyrrolidin-2-yl]methyl}-N-{1-[3-(trifluoromethoxy)phenyl]cyclobutyl}carbamate]
15,< 1,COC(=O)N(C[C@@H]1CCCN1)C1(c2cc(Cl)ccc2F)CCC1 [Methyl N-[1-(5-chloro-2-fluorophenyl)cyclobutyl]-N-{[(2S)-pyrrolidin-2-yl]methyl}carbamate]
16,< 0.3,"CC(C)(N)CNC1(c2ccc(F)c(C(F)(F)F)c2)CCC1 [N1-{1-[4-fluoro-3-(trifluoromethyl)phenyl]cyclobutyl}-2-methylpropane-1,2-diamine]"
17,< 0.3,"CC(C)(N)CNC1(c2cccc(C(F)(F)F)c2)CCC1 [2-methyl-N1-{1-[3-(trifluoromethyl)phenyl]cyclobutyl}propane-1,2-diamine]"
18,< 0.3,COC(=O)N(C[C@@H]1COCCN1C)C1(c2ccc(F)c(C(F)(F)F)c2)CC1 [Methyl (R)-(1-(4-fluoro-3-(trifluoromethyl)phenyl)cyclopropyl)((4-methylmorpholin-3-yl)methyl)carbamate]

row,SMILES,IC50 [µM]
1,CS(=O)(=O)N(C[C@H]1CCCN1)C1(c2ccc(F)c(C(F)(F)F)c2)CC1 [(R)-N-(1-(4-fluoro-3-(trifluoromethyl)phenyl)cyclopropyl)-N-(pyrrolidin-2-ylmethyl) methane sulfonamide],< 1
